In patent US6706663B2, “Herbicidal 3-heterocyclic substituted benzisothiazole and benzisoxazole compounds” (Wyeth, priority 2000, dated 2004):

Tests used:
[1] = tested on: ABUTH (Abutilon theophrasti); test: Preemergence herbicidal evaluation; assay type: in vivo, Medic.; conditions: rated 4-5 weeks after treatment
SETVI (Setaria viridis) [2] = test: Preemergence herbicidal evaluation; assay type: in vivo, (L.) Beau; conditions: rated 4-5 weeks after treatment
In short: (§1)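 Applied before emergence as an aqueous acetone spray over seeded soil. Read-out: 0–9 visual rating covering plant stand, vigor, size, chlorosis, malformation and overall appearance compared with control, taken 4–5 weeks after spraying.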

[3] = tested on: ECHCG (Echinochloa crus-galli); test: Preemergence herbicidal evaluation; assay type: in vivo, (L.) Beau; conditions: rated 4-5 weeks after treatment
In short: as §1

[4] = tested on: TRZAWR (Wheat, Winter, cv Riband); test: Postemergence herbicidal evaluation; assay type: in vivo, Triticum aestivum; conditions: for TRZAWR herbicidal rating: postemergence
In short: (§2)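 Seedlings grown about two weeks in flats, sprayed, then kept under standard greenhouse care. Rated visually 4–5 weeks after treatment on a 0–9 scale (stand, vigour, malformation, size, chlorosis, overall appearance) relative to untreated control; repeat tests averaged.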

ORYSAT (Rice, Tebonnet) [5] = test: Flooded paddy, post-transplant rice tolerance; assay type: in vivo, Oryza sativa, (L.) Tebonnet; conditions: flooded paddy, post-transplant rice, rated 3-4 weeks after treatment, 0-9 rating scale
In short: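 Seedlings aged ten days are transplanted in pairs into undrained pots of silt loam, which are then flooded to a depth of 1.5 to 3 cm. After herbicide application the pots are kept in a greenhouse with the flood maintained. Plants are rated 0-9 by visual comparison with controls.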

SETVI (Setaria viridis) [6] = test: Postemergence herbicidal evaluation; assay type: in vivo, (L.) Beau; conditions: for SETVI herbicidal rating: postemergence
In short: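 Seedlings grown about two weeks were sprayed with compound in 50/50 acetone/water containing 0.5% TWEEN 20, at about 0.0040 to 1.000 kg/ha via nozzle at 40 psi. Plants were kept under greenhouse conditions and visually rated on a 0-9 scale versus control four to five weeks after treatment; replicate tests averaged.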

[7] = tested on: MOOVA (Monochoria vaginalis); test: Flooded paddy, preemergence weed control; assay type: in vivo, Presl.; conditions: rated 3-4 weeks after treatment, 0-9 rating scale
In short: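 Seeds or propagules were planted in the top 0.5 cm of silt loam soil and kept flooded 1.5–3 cm above the surface throughout, then held in the greenhouse. Injury was rated visually on a 0–9 scale against untreated controls, covering stand, vigor, malformation, size and chlorosis.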

ORYSAT (Rice, Tebonnet) [8] = test: Postemergence herbicidal evaluation; assay type: in vivo, Oryza sativa, (L.) Tebonnet; conditions: for ORYSAT herbicidal rating: postemergence
In short: as §2

Row | Structure (SMILES) | ABUTH preemergence herbicidal rating ([1]; Rate 0.0620 kg/ha) | ABUTH preemergence herbicidal rating ([1]; Rate 0.1250 kg/ha) | ABUTH preemergence herbicidal rating ([1]; Rate 0.2500 kg/ha) | SETVI preemergence herbicidal rating (SETVI (Setaria viridis) [2]; Rate 0.0620 kg/ha) | SETVI preemergence herbicidal rating (SETVI (Setaria viridis) [2]; Rate 0.1250 kg/ha) | SETVI preemergence herbicidal rating (SETVI (Setaria viridis) [2]; Rate 0.2500 kg/ha) | Postemergence herbicidal rating, TRZAWR ([4]; rate 0.0320 kg/ha) | Postemergence herbicidal rating, TRZAWR ([4]; rate 0.0620 kg/ha) | Postemergence herbicidal rating, TRZAWR ([4]; rate 0.1250 kg/ha) | herbicidal rating, ORYSAT (rice tolerance) (ORYSAT (Rice, Tebonnet) [5]; rate 0.0080 kg/ha) | herbicidal rating, ORYSAT (rice tolerance) (ORYSAT (Rice, Tebonnet) [5]; rate 0.0320 kg/ha) | herbicidal rating, ORYSAT (rice tolerance) (ORYSAT (Rice, Tebonnet) [5]; rate 0.1250 kg/ha) | Postemergence herbicidal rating, SETVI (SETVI (Setaria viridis) [6]; rate 0.0320 kg/ha) | Postemergence herbicidal rating, SETVI (SETVI (Setaria viridis) [6]; rate 0.0620 kg/ha) | Postemergence herbicidal rating, SETVI (SETVI (Setaria viridis) [6]; rate 0.1250 kg/ha) | herbicidal rating, MOOVA ([7]; rate 0.0320 kg/ha) | herbicidal rating, MOOVA ([7]; rate 0.1250 kg/ha) | Postemergence herbicidal rating, ORYSAT (ORYSAT (Rice, Tebonnet) [8]; rate 0.0320 kg/ha) | Postemergence herbicidal rating, ORYSAT (ORYSAT (Rice, Tebonnet) [8]; rate 0.0620 kg/ha) | Postemergence herbicidal rating, ORYSAT (ORYSAT (Rice, Tebonnet) [8]; rate 0.1250 kg/ha) | other results
1 | Cn1c(C(F)(F)F)cc(=O)n(-c2ccc3snc(-c4ccccn4)c3c2)c1=O [Compound 9, 1-methyl-3-[3-(2-pyridyl)-1,2-benzisothiazol-5-yl]-6-(trifluoromethyl)uracil] | 9.0 | 9.0 | 9.0 | 9.0 | 9.0 | 9.0 | 4.0 | 4.5 | 6.0 | 4.0 | 3.0 | 6.0 | 8.0 | 9.0 | 9.0 | 9.0 | 9.0 | 3.8 | 4.3 | 3.0 | ECHCG preemergence herbicidal rating ([3]; Rate 0.0620 kg/ha): 8.3; ECHCG preemergence herbicidal rating ([3]; Rate 0.1250 kg/ha): 9.0; ECHCG preemergence herbicidal rating ([3]; Rate 0.2500 kg/ha): 9.0; herbicidal rating, MOOVA ([7]; rate 0.0080 kg/ha): 8.0
2 | Cc1ccc(-c2nsc3ccc(-n4c(=O)cc(C(F)(F)F)n(C)c4=O)cc23)nc1 [Compound 42, 1-methyl-3-[3-(5-methyl-2-pyridyl)-1,2-benzisothiazol-5-yl]-6-(trifluoromethyl)uracil] |  |  |  |  |  |  | 4.0 | 5.0 | 5.0 |  | 3.0 | 4.0 | 5.0 | 5.0 | 9.0 | 8.0 | 9.0 | 1.0 | 1.5 | 1.5 | Preemergence herbicidal rating ABUTH ([1]; Rate 0.0620 kg/ha): 2.0; Preemergence herbicidal rating ABUTH ([1]; Rate 0.1250 kg/ha): 6.5; Preemergence herbicidal rating ABUTH ([1]; Rate 0.2500 kg/ha): 9.0; Preemergence herbicidal rating SETVI (SETVI (Setaria viridis) [2]; Rate 0.0620 kg/ha): 5.0; Preemergence herbicidal rating SETVI (SETVI (Setaria viridis) [2]; Rate 0.1250 kg/ha): 7.5; Preemergence herbicidal rating SETVI (SETVI (Setaria viridis) [2]; Rate 0.2500 kg/ha): 9.0; Preemergence herbicidal rating ECHCG ([3]; Rate 0.0620 kg/ha): 1.0; Preemergence herbicidal rating ECHCG ([3]; Rate 0.1250 kg/ha): 5.5; Preemergence herbicidal rating ECHCG ([3]; Rate 0.2500 kg/ha): 8.5
3 | Cc1ccsc1-c1nsc2ccc(-n3c(=O)cc(C(F)(F)F)n(C)c3=O)cc12 [Compound 4, 1-methyl-3-[3-(3-methyl-2-thienyl)-1,2-benzisothiazol-5-yl]-6-(trifluoromethyl)uracil] | 7.8 | 8.9 | 9.0 | 8.8 | 9.0 | 9.0 | 3.7 | 4.2 | 5.2 | 2.0 | 3.5 | 4.0 | 5.0 | 6.3 | 7.3 | 9.0 | 9.0 | 2.8 | 3.8 | 4.5 | ECHCG preemergence herbicidal rating ([3]; Rate 0.0620 kg/ha): 7.0; ECHCG preemergence herbicidal rating ([3]; Rate 0.1250 kg/ha): 8.3; ECHCG preemergence herbicidal rating ([3]; Rate 0.2500 kg/ha): 9.0; herbicidal rating, MOOVA ([7]; rate 0.0080 kg/ha): 9.0
4 | Cc1nn(-c2nsc3ccc(-n4c(=O)cc(C(F)(F)F)n(C)c4=O)cc23)c(C)c1C [Compound 49, 1-methyl-6-(trifluoromethyl)-3-[3-(3,4,5-trimethylpyrazol-1-yl)-1,2-benzisothiazol-5-yl]uracil] |  |  |  |  |  |  |  |  |  |  | 0.0 | 0.0 |  |  |  | 0.0 |  |  |  |  | Preemergence herbicidal rating ABUTH ([1]; Rate 0.0620 kg/ha): 0.0; Preemergence herbicidal rating ABUTH ([1]; Rate 0.1250 kg/ha): 0.0; Preemergence herbicidal rating ABUTH ([1]; Rate 0.2500 kg/ha): 0.0; Preemergence herbicidal rating SETVI (SETVI (Setaria viridis) [2]; Rate 0.0620 kg/ha): 0.0; Preemergence herbicidal rating SETVI (SETVI (Setaria viridis) [2]; Rate 0.1250 kg/ha): 0.0; Preemergence herbicidal rating SETVI (SETVI (Setaria viridis) [2]; Rate 0.2500 kg/ha): 0.0; Preemergence herbicidal rating ECHCG ([3]; Rate 0.0620 kg/ha): 0.0; Preemergence herbicidal rating ECHCG ([3]; Rate 0.1250 kg/ha): 0.0; Preemergence herbicidal rating ECHCG ([3]; Rate 0.2500 kg/ha): 0.0; TRZAWR herbicidal rating ([4]; rate 0.0320 kg/ha): 0.5; TRZAWR herbicidal rating ([4]; rate 0.0620 kg/ha): 1.5; SETVI herbicidal rating (SETVI (Setaria viridis) [6]; rate 0.0320 kg/ha): 0.0; SETVI herbicidal rating (SETVI (Setaria viridis) [6]; rate 0.0620 kg/ha): 0.0; ORYSAT herbicidal rating (ORYSAT (Rice, Tebonnet) [8]; rate 0.0320 kg/ha): 0.5; ORYSAT herbicidal rating (ORYSAT (Rice, Tebonnet) [8]; rate 0.0620 kg/ha): 1.5
5 | CC1COC(c2nsc3ccc(-n4c(=O)cc(C(F)(F)F)n(C)c4=O)cc23)O1 (stereo not drawn) [Compound 57, 1-methyl-3-[3-(4-methyl-1,3-dioxolan-2-yl)-1,2-benzisothiazol-5-yl]-6-(trifluoromethyl)uracil] |  |  |  |  |  |  |  |  |  | 3.0 | 8.0 | 9.0 |  |  |  | 9.0 | 9.0 |  |  |  | Preemergence herbicidal rating ABUTH ([1]; Rate 0.0620 kg/ha): 9.0; Preemergence herbicidal rating ABUTH ([1]; Rate 0.1250 kg/ha): 9.0; Preemergence herbicidal rating ABUTH ([1]; Rate 0.2500 kg/ha): 9.0; Preemergence herbicidal rating SETVI (SETVI (Setaria viridis) [2]; Rate 0.0620 kg/ha): 9.0; Preemergence herbicidal rating SETVI (SETVI (Setaria viridis) [2]; Rate 0.1250 kg/ha): 9.0; Preemergence herbicidal rating SETVI (SETVI (Setaria viridis) [2]; Rate 0.2500 kg/ha): 9.0; Preemergence herbicidal rating ECHCG ([3]; Rate 0.0620 kg/ha): 9.0; Preemergence herbicidal rating ECHCG ([3]; Rate 0.1250 kg/ha): 9.0; Preemergence herbicidal rating ECHCG ([3]; Rate 0.2500 kg/ha): 9.0; TRZAWR herbicidal rating ([4]; rate 0.0320 kg/ha): 4.5; TRZAWR herbicidal rating ([4]; rate 0.0620 kg/ha): 5.0; SETVI herbicidal rating (SETVI (Setaria viridis) [6]; rate 0.0320 kg/ha): 4.0; SETVI herbicidal rating (SETVI (Setaria viridis) [6]; rate 0.0620 kg/ha): 9.0; ORYSAT herbicidal rating (ORYSAT (Rice, Tebonnet) [8]; rate 0.0320 kg/ha): 4.0; ORYSAT herbicidal rating (ORYSAT (Rice, Tebonnet) [8]; rate 0.0620 kg/ha): 4.5
6 | Cc1csc(-c2nsc3ccc(-n4c(=O)cc(C(F)(F)F)n(C)c4=O)cc23)n1 [Compound 7, 1-methyl-3-[3-(4-methyl-2-thiazolyl)-1,2-benzisothiazol-5-yl]-6-(trifluoromethyl)uracil] | 9.0 | 9.0 | 9.0 | 9.0 | 9.0 | 9.0 | 4.5 | 5.5 | 6.0 | 3.0 | 2.0 | 5.0 | 0.0 | 0.0 | 2.0 | 9.0 | 9.0 | 4.5 | 5.0 | 7.0 | ECHCG preemergence herbicidal rating ([3]; Rate 0.0620 kg/ha): 0.0; ECHCG preemergence herbicidal rating ([3]; Rate 0.1250 kg/ha): 3.0; ECHCG preemergence herbicidal rating ([3]; Rate 0.2500 kg/ha): 3.0; herbicidal rating, MOOVA ([7]; rate 0.0080 kg/ha): 9.0
